Laboratory results reported in patent publication US20250339569A1, “CARBONIC ANHYDRASE IX LIGANDS” (priority 2021, published 2025).

How the values were obtained:
human CAIX [1] = target: T1, human CAIX (Homo sapiens, UniProt Q16790); test: Radioligand saturation binding and equilibration on CHO-huCAIX; design: host or cells: CHO-VGT / CHO cells
Experimental: After attainment of equilibrium, the cells were harvested, and the bound fraction of the compounds was measured. The resulting saturation binding data were analyzed using Graph Pad Prism 8.3.
CHO cells transfected with human, dog, and mouse CAIX (CHO-huCA9 T04J-1/20 K1, CHO-dogCA9 T05J-9/20 K4, CHO-murCA9 T05J-3/20 K4) were obtained from InSCREENex (Germany).
A molar excess of 3BP-3565 was used as a blocking peptide to assess non-specific binding in autoradiographic studies. 3BP-3565 binds with a similar affinity to CAIX and blocks binding sites of test compounds. For the blocking solution, a 10 mM stock solution of 3BP-3565 was prepared by dissolution in DMSO.
CHO cells were maintained in Ham's medium supplemented with 10% fetal bovine serum, 2 mM L-glutamine, 100 U/mL Penicillin and 0.1 mg/mL streptomycin under standard cell culture conditions. The cells were grown in uncoated cell culture flasks (150 cm^2, Biochrom) to subconfluence and then split 1:2-1:3. Approximately 24 hours before the assay, cells were detached by incubation with Accutase and carefully tapping the flasks. Detached cells were resuspended in medium and collected by centrifugation (300 g, 5 min, RT). Cell pellets were resuspended in cell culture medium and counted using a particle counter (CASY Model TT, Scharfe Systems, Germany). Cell concentrations were adjusted to 3×10^5 mL^−1, and 1.000 μL per well of the suspension were dispensed into poly-D-lysine-coated flat-clear-bottom 24 well plates.
Compound radiolabeling was performed as follows. […] Then, 25 mg/mL methionine in 1 M sodium acetate buffer pH 5 was added at a final concentration of 0.1 M sodium acetate. Subsequently, the mixture was heated to 80° C. for 25 min, followed by cooling for 5 minutes. Finally, 20 μL of 200 mg/mL ascorbic acid solution, 2.5 μL of 5 mg/mL DTPA and 2.5 μL of 5% TWEEN-20 per 100 μL reaction mixture were added, resulting in the concentrated study solution. For quality control, an aliquot of the labeling solution was diluted 1:40 with 0.1% TWEEN-20 in 0.1 M sodium acetate buffer pH 5. Five microliters of the diluted labeling solution were injected onto a Poroshell SB-C18 2.1×50 mm, 2.7 μm column. HPLC analysis was performed as follows: Gradient A: H2O, 0.1% TFA, Gradient B: Acetonitrile (MeCN), gradient from 5% B to 70% B within 15 min, flow rate of 0.5 mL/min; detector: NaI, DAD 215 nm. The peak eluting with the dead volume represents free radionuclide, the peak eluting with the ligand-specific retention time as determined with a non-labeled sample represents the radiolabeled compound.
The assessment of the time needed until attainment of equilibration on CHO-huCAIX and CHO-dgCAIX was performed as follows. The 10 mM 3BP-3565 stock solution was diluted with assay medium (Ham's medium without additives) to prepare an 8-μM blocking working solution. The radiolabeling mixtures were diluted with assay medium to prepare 160 nM radioligand working solutions. Subsequently, 1.6 and 3.2 nM radioligand dilutions were prepared by diluting the radioligand working solutions 1:100 and 1:50, respectively, with assay medium. Approximately 24 hours after re-seeding (3×10^5 mL^−1 cells per well), the medium was aspirated, and the cells were washed once with assay medium (700 μL). To determine total binding, 700 μL of binding medium and 100 μL of the radioligand dilutions were added to the wells in triplicates.
To determine non-specific binding, 600 μL of binding medium, 100 μL of the […] 3BP-3565 blocking solution and 100 μL of the radioligand dilutions were added to the wells in triplicates. The plates were incubated for 1 h, 3 h, 6 h, and 8 h at 37° C. under standard cell culture conditions (5% CO2). At the end of the incubation time, the plates were placed on ice while aspirating the radioligand solutions. Subsequently, the cells were washed with ice-cold PBS (0.5 mL, 1 mL, 1 mL). […]

[2] = Allometry and prediction of human exposure and PK parameters; settings: allometry from mouse and dog PK
Experimental: From the variety of CL, Vd and T1/2 determined in the animal studies, the highest and lowest values for each species were retained, and allometry was conducted on all the combinations to obtain a range for each predicted human PK parameter.
The missing input parameters were dealt with as follows. Regarding blood:plasma concentration ratio, the frequent default values of 1.0 and 0.8 were considered and found to make no difference to the outputs, so it was left at 1.0. Plasma protein binding: a free fraction fup of 1 was considered in order to estimate the highest C5 min values.

human CAIX [3] = target: T1, human CAIX; test: In vitro SPR binding assay of DPI-4452, natLu-DPI-4452 and natGa-DPI-4452 to CAIX (anti-human Fc capture); design: purchased SinoBliological (Sino Biological) 10107-H02H
Experimental: Surface Plasmon Resonance (SPR) studies were performed on a Biacore™ T200 using a ligand capture approach. Basically, anti-human Fc antibodies were immobilized on the surface of a sensor chip and CAIX was captured on the functionalized surface via its Fc Tag.
Then, each compound was injected at increasing concentrations on the captured CAIX in order to measure the in real-time interaction of the compound to its target (i.e. the captured CAIX). The in real-time monitoring of the association and dissociation of the interaction gives access to the interaction kinetics parameters (i.e. the association and dissociation rate constants and the resulting affinity constants).
• A series S CM5 sensor chip was used (Cytiva). • All reagents used for the immobilization procedure were part of the Amine Coupling Kit, type 2 and/or the Human Antibody Capture Kit (Cytiva). The running buffer (HBS-EP+) was prepared by 10-fold dilution of the stock HBS-EP+ 10× solution (Cytiva). • Anti-human Fc antibodies stock solution (0.5 mg/mL in 0.15 M NaCl) was diluted in 10 mM sodium acetate pH 5.0 to a final concentration of 25 μg/mL directly into a plastic vial 7 mm. • Amine coupling reagents were transferred into plastic vials 7 mm as follow: • 95 μL of 0.4 M 1-ethyl-3-(3-dimethylaminopropyl)carbodiimide (EDC). • 95 μL of 0.1 M N-hydroxysuccinimide (NHS). • An empty plastic vial 7 mm was added in the Biacore™ sample rack for mixing. • 150 μL of 1 M ethamolamine-HCl, pH 8.5. • Plastic vials were closed with rubber caps and the sample rack was inserted into the Biacore™ T200 sample compartment. • The Biacore™ T200 Amine Wizard was used to immobilize the anti-Human Fc antibodies on the four flow-cells of a series S CM5 sensor chip simultaneously with defined contact time of 360 seconds and flow-rate of 5 μL/min. • The immobilization procedure was performed at 25° C., following Cytiva's recommendations, as described in Table 23.
This procedure allowed to reach immobilization levels between 6000 and 9000 RU of anti-human Fc antibodies on the sensor chip surface.
• CAIX (Sino Biological, 10107-H02H) stock solution was prepared from lyophilized material reconstituted with deionized water to a concentration of 0.25 μg/mL (3.69 μM), following the supplier recommendations. • CAIX working solution was obtained after dilution of CAIX stock solution with PBS-P+1×, 0.1% DMSO to a final concentration of 200 nM directly in a Biacore™ plastic vial.
• For each measurement, the raw surface plasmon resonance response (RU) was plotted against time (s) as a sensorgram using the Biacore™ T200 Control Software. • Raw data were corrected by double referencing with subtraction of the signal of both the reference flow-cell and the blank cycle. • The association and dissociation rate constants (ka and kd, respectively), as well as the dissociation constant KD and dissociation half-life t1/2 were determined from the corrected sensorgrams by fitting the data to a 1:1 Langmuir binding model with the Biacore™ T200 evaluation software.

| Compound | Kd (human CAIX [1]; Mean pKd ± SD, CHO-huCAIX) [pM] | Kd (human CAIX [1]; pKd, CHO-huCAIX, first independent experiment) [pM] | Kd (human CAIX [1]; pKd, CHO-huCAIX, second independent experiment) [pM] | Kd (human CAIX [1]; pKd, human CAIX expressed in CHO cells, 8 h at 37°C) [pM] | predicted human clearance (CL) [2] [mL/min/kg] | predicted human terminal half-life (T1/2) [2] [h] | predicted human volume of distribution (Vd) [2] [L/kg] | affinity of binding to CAIX (human CAIX [3]; SPR) | t1/2 (human CAIX [3]; SPR dissociation half-life) [h] | mean dissociation half-life (human CAIX [3]; SPR, 25°C) [h] |
| --- | --- | --- | --- | --- | --- | --- | --- | --- | --- | --- |
| CC(C)C[C@@H]1NC(=O)[C@H](Cc2cccc(NC(=O)CCCS(N)(=O)=O)c2)NC(=O)[C@H](CC(=O)O)NC(=O)[C@H]2CCCN2C(=O)[C@H](CCC(=O)O)NC(=O)[C@@H](NC(=O)[C@H](CCC(N)=O)NC(=O)CN2CCN(C(=O)CN3CCN(CC(=O)O)CCN(CC(=O)O)CCN(CC(=O)O)CC3)CC2)CSCc2cccc(c2)CSC[C@@H](C(N)=O)NC(=O)[C@H](CO)NC(=O)[C@H](Cc2c[nH]c3ccccc23)NC(=O)[C@H]([C@@H](C)O)NC1=O [[^111In]In-DPI-4452, metal not drawn] | 316 | 200 | 501 | ≤ 1000 |  |  |  |  |  |  |
| CC(C)C[C@@H]1NC(=O)[C@H](Cc2cccc(NC(=O)CCCS(N)(=O)=O)c2)NC(=O)[C@H](CC(=O)O)NC(=O)[C@H]2CCCN2C(=O)[C@H](CCC(=O)O)NC(=O)[C@@H](NC(=O)[C@H](CCC(N)=O)NC(=O)CN2CCN(C(=O)CN3CCN(CC(=O)O)CCN(CC(=O)O)CCN(CC(=O)O)CC3)CC2)CSCc2cccc(c2)CSC[C@@H](C(N)=O)NC(=O)[C@H](CO)NC(=O)[C@H](Cc2c[nH]c3ccccc23)NC(=O)[C@H]([C@@H](C)O)NC1=O [DPI-4452, DOTA-PPAc-Gln-[Cys(3MeBn)-Glu-pro-Asp-Af3(Cpsu)-Leu-Thr-Trp-Ser-Cys]-NH2] |  |  |  |  | 3.57 to 13.0 | 0.17 to 1.47 | 0.189 to 0.455 | subnanomolar affinity | 1.65 | 1.65 |
